The results in this text go back to publication doi:10.1101/2025.08.13.670122v1 (bioRxiv, 2025).

Assay [1] addresses T1, AT1R (Homo sapiens, UniProt P30556).
T1 sequence (P30556 1-359): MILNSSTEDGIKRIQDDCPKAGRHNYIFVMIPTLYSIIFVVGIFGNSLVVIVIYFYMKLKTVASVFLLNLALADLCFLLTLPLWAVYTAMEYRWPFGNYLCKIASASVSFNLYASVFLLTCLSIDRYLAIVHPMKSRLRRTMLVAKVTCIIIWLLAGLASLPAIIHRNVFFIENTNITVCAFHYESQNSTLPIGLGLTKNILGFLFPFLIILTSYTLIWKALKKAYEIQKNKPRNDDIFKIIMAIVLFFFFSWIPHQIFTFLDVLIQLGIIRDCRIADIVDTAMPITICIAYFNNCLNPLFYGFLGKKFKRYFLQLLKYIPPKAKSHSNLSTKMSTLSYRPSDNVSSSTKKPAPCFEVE
In words: Gαq activation BRET (GABY sensor) in HEK293 cells expressing AT1R. The class given is cell-based. Also on record: expressed in transfected cells; host or cells: HEK293 cells, transient PEI transfection. As to conditions: for Emax Gαq (% AngII): HEK293/AT1R, GABY BRET sensor, response of the ligand at 10 μM, normalised to AngII; for EC50: HEK293 cells transiently expressing human AT1R, Gαq-RlucII/Gβ1/Gγ1-GFP10 (GABY) BRET sensor, BRET read 10 min after ligand, mean ± SEM of at least three to five independent experiments. From the text: (§1) We utilized a clonal cell line HEK293, referred to hereafter as HEK293 cells, which has been previously described.[7],[8] As a gracious gift from A. Inoue (Tohoku University, Sendai, Miyagi, Japan), CRISPR Gαq/11 and Gα12/13 knockout cell lines (ΔGq/11 and ΔG12/13, respectively), were derived as previously explained.[48] In brief, a CRISPR-Cas9 system was used to target either GNAQ and GNA11 or GNA12 and GNA13 genes in HEK293T cells simultaneously to generate the Gαq/11 and Gα12/13 knockout cell lines. For the production of adenovirus, we utilized HEK293A cells. All cells were grown in DMEM supplemented with 10% FBS and Penicillin-Streptomycin-L-Glutamine (10000 IU penicillin, 10000 µg/mL Streptomycin, 200 mM L-Glutamine) at 37°C in T175 flasks under a 5% CO2 humidified chamber. Periodic testing was carried out for mycoplasma contamination (ABM™, Mycoplasma PCR Detection kit). For all biosensors used, cells underwent transfection with the PEI reagent, employing a PEI:DNA ratio of 3:1. For the Gαq biosensor, HEK293 cells were transfected with the plasmids coding for Gαq-RLucII (120 ng), Gβ1 (3000 ng), Gγ1-GFP10 (3000 ng), human AT1 (3000 ng) and Salmon sperm DNA (SSD) (880 ng). For the β-arrestin2 recruitment assay, HEK293 cells were transfected with the plasmids coding for 120 ng β-arrestin-2-RLucII, 3000 ng AT1, 3000 ng rGFP-CAAX, and 3880 ng SSD. For the measurement of PKC, HEK293 cells were transfected with 3000 ng AT1, 600 ng PKC-c1b, and 6400 ng SSD. […] 100 µL of the cell/DNA mixture was added to white 96-well plates and incubated at 37°C at 5% CO2 for 48 h. For the Rho assay, ΔG12/13 cells were seeded at a density of 9,000 cells per well in poly-ornithine-coated white 96-well plates and transfected the following day. In brief, 1 μg of total DNA in 100 μL of PBS was mixed with 100 μL of PBS containing 3 μL of 1 mg/mL PEI. For Rho signaling, 150 ng of AT1R DNA with 25 ng of PKN-RBD-RlucII [8], and 100 ng of rGFP-CAAX were used. Empty pcDNA was used to reach 1 µg of the total DNA amount in 100 μL of PBS. The DNA was then mixed with 100 μL of PBS containing 3 μL of 1 mg/mL PEI. After a 20-min incubation, the DNA/PEI complexes were dispensed into cells in 96-well plates (15 µL/well), and the experiment was carried out 48 h post-transfection.
(§2) On the day of the experiment, each well was washed with 80 µL of Tyrode’s buffer (140 mM NaCl, 2.7 mM KCl, 1 mM CaCl2, 12 mM NaHCO3, 5.6 mM D-glucose, 0.5 mM MgCl2, 0.37 mM NaH2PO4, 25 mM Hepes (pH 7.4)). This was followed by incubation for 1 h in Tyrode’s buffer at room temperature. For the Gαq, β-arrestin-2, and PKC biosensors used in HEK293 cells, coelenterazine 400A (at a final concentration of 5 μM) was added 10 min before stimulation. Cells were then stimulated with increasing doses of the indicated ligand, and BRET signals were measured using a Tristar2 (Berthold) microplate reader 10 min later. For the PKC and Rho biosensors in VSMCs, and the Rho biosensor in ΔG12/13 cells, cells were similarly stimulated with ligands for 1 min, 1 min 30 s, and 3 min, respectively, before BRET measurement. […] BRET signals were then measured using a Synergy2 (BioTek) microplate reader. The applied filter set was 410/80 nm and 515/30 nm, designed to detect the light emissions of RlucII (Renilla luciferase) (donor) and rGFP (acceptor), respectively.
(In general: In BRET a luciferase serves as donor, and the signal depends on an acceptor being close.)

Assay [2] addresses T1, AT1R. The experiment in a line: β-arrestin2 recruitment BRET (β-arrestin2-RLucII/rGFP-CAAX) in HEK293 cells expressing AT1R. The note with it: for Emax βarr2 (% AngII): HEK293/AT1R, β-arrestin2 BRET, response of the ligand at 10 μM, normalised to AngII; for EC50: HEK293 cells transiently expressing AT1R, β-arrestin2-RLucII/rGFP-CAAX BRET, read 10 min after ligand, mean ± SEM of at least three to five independent experiments, SEM, read-out: EC50 βarr2. The class given is cell-based. Also on record: expressed in transfected cells; host or cells: HEK293 cells, transient PEI transfection.
Source text: as §1, §2
(In general: Activated receptors often draw arrestin, which recruitment assays turn into a signal.)

Peptide text beside a SMILES is read from it.

Take `CC[C@H](C)[C@H](NC(=O)[C@H](Cc1ccc(O)cc1)NC(=O)[C@@H](NC(=O)[C@H](CCCNC(=N)N)NC(=O)[C@@H](N)CC(=O)O)C(C)C)C(=O)N[C@@H](Cc1c[nH]cn1)C(=O)N1CCC[C@H]1C(=O)N[C@@H](Cc1ccc(O)cc1)C(=O)O` [24c] (H-DRVYIHPY-OH): the “Emax Gαq (% AngII)” value in assay [1] was 89 % AngII. In assay [2], the “Emax βarr2 (% AngII)” value is given as 105 % AngII.

`CC[C@H](C)[C@H](NC(=O)[C@H](Cc1ccc(O)cc1)NC(=O)[C@@H](NC(=O)[C@H](CCCN=C(N)N)NC(=O)[C@@H](N)CC(=O)O)C(C)C)C(=O)N[C@@H](Cc1c[nH]cn1)C(=O)N1CCC[C@H]1C(=O)N[C@@H](Cc1ccc(O)cc1)C(=O)O` [24c] (H-DRVYIHPY-OH): the EC50 in assay [1] (SEM) turned out to be 4.2 ± 1.3 nM; in assay [2] it was 2.6 ± 0.8 nM.

Take `CC[C@H](C)[C@H](NC(=O)[C@H](Cc1ccc(O)cc1)NC(=O)[C@@H](NC(=O)[C@H](CCCNC(=N)N)NC(=O)[C@@H](N)CC(=O)O)C(C)C)C(=O)N[C@@H](Cc1c[nH]cn1)C(=O)N1CCC[C@H]1C(=O)N[C@@H](CCC(=O)O)C(=O)O` [compound 6] (H-DRVYIHPE-OH; N-terminus assumed): the EC50 in assay [1] is over 10000 nM. For the same molecule, in assay [2], the “Emax βarr2 (% AngII)” value is given as 63 % AngII and the EC50 is 957 ± 111 nM.

Consider `CC[C@H](C)[C@H](NC(=O)[C@H](Cc1ccc(O)cc1)NC(=O)[C@@H](NC(=O)[C@H](CCCNC(=N)N)NC(=O)[C@@H](N)CC(=O)O)C(C)C)C(=O)N[C@@H](Cc1c[nH]cn1)C(=O)N1CCC[C@H]1C(=O)N[C@@H](Cc1cccc2ccccc12)C(=O)O` [compound 8], for which the “Emax Gαq (% AngII)” value in assay [1] stood at 61 % AngII. For the same molecule, in assay [1] (SEM), the half-maximal effective concentration (EC50) came out at 8.3 ± 5.1 nM. In assay [2], the “Emax βarr2 (% AngII)” value was 101 % AngII and the EC50 was 2.1 ± 0.4 nM.

In the case of `CC[C@H](C)[C@H](NC(=O)[C@H](Cc1ccc(O)cc1)NC(=O)[C@@H](NC(=O)[C@H](CCCN=C(N)N)NC(=O)[C@@H](N)CC(=O)O)C(C)C)C(=O)N[C@@H](Cc1c[nH]cn1)C(=O)N1CCC[C@H]1C(=O)N[C@@H](Cc1c[nH]c2ccccc12)C(=O)O` [compound 21] (H-DRVYIHPW-OH), the EC50 is 4.7 ± 1.1 nM in assay [1] (SEM) and 2.2 ± 0.4 nM in assay [2].

`CC[C@H](C)[C@H](NC(=O)[C@H](Cc1ccc(O)cc1)NC(=O)[C@@H](NC(=O)[C@H](CCCNC(=N)N)NC(=O)[C@@H](N)CC(=O)O)C(C)C)C(=O)N[C@@H](Cc1c[nH]cn1)C(=O)N1CCC[C@H]1C(=O)N[C@@H](Cc1ccccn1)C(=O)O` [compound 19]: the “Emax Gαq (% AngII)” value in assay [1] is on record as 48 % AngII. Further, the EC50 in assay [1] (SEM) is 6.9 ± 2.6 nM; in assay [2] it was 2.2 ± 0.4 nM. Further, in assay [2], the “Emax βarr2 (% AngII)” value is reported as 101 % AngII.

As for `CC[C@H](C)[C@H](NC(=O)[C@H](Cc1ccc(O)cc1)NC(=O)[C@@H](NC(=O)[C@H](CCCNC(=N)N)NC(=O)[C@@H](N)CC(=O)O)C(C)C)C(=O)N[C@@H](Cc1c[nH]cn1)C(=O)N1CCC[C@H]1C(=O)N[C@@H](Cc1cscn1)C(=O)O` [compound 20], the “Emax Gαq (% AngII)” value in assay [1] turned out to be 29 % AngII. Also, the 50% effective concentration (EC50) worked out at 14 ± 13 nM in assay [1] (SEM) and 1.9 ± 0.3 nM in assay [2]. The “Emax βarr2 (% AngII)” value in assay [2] stood at 97 % AngII.

As to `C=CCOc1ccc(C[C@H](NC(=O)[C@@H]2CCCN2C(=O)[C@H](Cc2c[nH]cn2)NC(=O)[C@@H](NC(=O)[C@H](Cc2ccc(O)cc2)NC(=O)[C@@H](NC(=O)[C@H](CCCNC(=N)N)NC(=O)[C@@H](N)CC(=O)O)C(C)C)[C@@H](C)CC)C(=O)O)cc1` [compound 10], the “Emax Gαq (% AngII)” value in assay [1] turned out to be 48 % AngII. Besides, the 50% effective concentration (EC50) in assay [1] (SEM) stood at 17 ± 10 nM; in assay [2], 7.4 ± 1.9 nM. Besides, in assay [2], the “Emax βarr2 (% AngII)” value turned out to be 100 % AngII.

Regarding `CC[C@H](C)[C@H](NC(=O)[C@H](Cc1ccc(O)cc1)NC(=O)[C@@H](NC(=O)[C@H](CCCNC(=N)N)NC(=O)[C@@H](N)CC(=O)O)C(C)C)C(=O)N[C@@H](Cc1c[nH]cn1)C(=O)N1CCC[C@H]1C(=O)N[C@@H](CCCN)C(=O)O` [compound 5], the EC50 in assay [1] is over 10000 nM; in assay [2], 4560 ± 3880 nM. Moreover, the “Emax βarr2 (% AngII)” value in assay [2] was found to be 45 % AngII.

Regarding `CC[C@H](C)[C@H](NC(=O)[C@H](Cc1ccc(O)cc1)NC(=O)[C@@H](NC(=O)[C@H](CCCNC(=N)N)NC(=O)[C@@H](N)CC(=O)O)C(C)C)C(=O)N[C@@H](Cc1c[nH]cn1)C(=O)N1CCC[C@H]1C(=O)N[C@@H](Cc1ccncc1)C(=O)O` [compound 17], the “Emax Gαq (% AngII)” value in assay [1] came to 37 % AngII. Further, in assay [1] (SEM), the EC50 came out at 7.5 ± 6.3 nM. Also, in assay [2], the “Emax βarr2 (% AngII)” value is reported as 105 % AngII and the EC50 worked out at 5.2 ± 1 nM.

Turning to `CC[C@H](C)[C@H](NC(=O)[C@H](Cc1ccc(O)cc1)NC(=O)[C@@H](NC(=O)[C@H](CCCNC(=N)N)NC(=O)[C@@H](N)CC(=O)O)C(C)C)C(=O)N[C@@H](Cc1c[nH]cn1)C(=O)N1CCC[C@H]1C(=O)N[C@@H](CC1CCCCC1)C(=O)O` [compound 4], the “Emax Gαq (% AngII)” value in assay [1] came out at 52 % AngII. Besides, the EC50 in assay [1] (SEM) came to 5.5 ± 3.9 nM. In assay [2], the “Emax βarr2 (% AngII)” value came to 95 % AngII and the EC50 was found to be 1.4 ± 0.2 nM.

On to `CC[C@H](C)[C@H](NC(=O)[C@H](Cc1ccc(O)cc1)NC(=O)[C@@H](NC(=O)[C@H](CCCNC(=N)N)NC(=O)[C@@H](N)CC(=O)O)C(C)C)C(=O)N[C@@H](Cc1c[nH]cn1)C(=O)N1CCC[C@H]1C(=O)N[C@@H](Cc1cccc(O)c1)C(=O)O` [24b], for which, in assay [1], the “Emax Gαq (% AngII)” value was found to be 49 % AngII. In addition, the EC50 in assay [1] (SEM) amounted to 4.6 ± 3 nM; in assay [2], 2.8 ± 0.6 nM. Besides, in assay [2], the “Emax βarr2 (% AngII)” value was found to be 93 % AngII.

Take `CC[C@H](C)[C@H](NC(=O)[C@H](Cc1ccc(O)cc1)NC(=O)[C@@H](NC(=O)[C@H](CCCNC(=N)N)NC(=O)[C@@H](N)CC(=O)O)C(C)C)C(=O)N[C@@H](Cc1c[nH]cn1)C(=O)N1CCC[C@H]1C(=O)N[C@@H](Cc1ccc(-c2ccccc2)cc1)C(=O)O` [compound 13]: the “Emax Gαq (% AngII)” value in assay [1] turned out to be 45 % AngII. The values for the EC50 in assay [1] (SEM) and in assay [2] were 16 ± 12 nM and 15 ± 4 nM, respectively. Further, in assay [2], the “Emax βarr2 (% AngII)” value worked out at 98 % AngII.

For orientation: EC50 means the midpoint of the concentration-response curve.
